In the supplement of paper PMC10627819:

Experiments:
[1] = tested on: S. pneumoniae D39V; assay: Bliss interaction score (quartile over a dose matrix) (fitness difference); higher = more antagonism (negative = synergy)
In short: (§1)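 Fitness is OD595 at stationary-phase entry relative to the plate's robust no-drug mean, capped at 1. Single-drug fitness was inferred from combinations. The Bliss score is observed minus product-expected fitness, summarised by quartiles over technical, biological and donor/recipient replicates.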

[2] = tested on: B. subtilis 168; assay: as above
In short: as §1

[3] = tested on: S. aureus Newman; assay: as above
In short: as §1

[4] = tested on: S. aureus DSM 20231; assay: as above
In short: as §1

[5] = tested on: S. pneumoniae D39V; assay: fitness (endpoint OD595 vs no drug) (fraction); higher = more growth
In short: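 Plates with 384 wells were inoculated at OD595 0.01 using 30 µl of TSB, LB Lennox or CY, or 55 µl for S. pneumoniae. Incubation was at 37 °C, with OD595 measured every 30 min for 14 h. Fitness is the stationary-phase transition optical density over the robust mean of no-drug control wells, after first-reading background subtraction; it is capped at 1.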
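Wherever Bliss interaction score (quartile over a dose matrix) is given: first quartile when negative (synergy) and third quartile when positive (antagonism).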

CC[C@H]1OC(=O)[C@H](C)[C@@H](O[C@H]2C[C@@](C)(OC)[C@@H](O)[C@H](C)O2)[C@H](C)[C@@H](O[C@@H]2O[C@H](C)C[C@H](N(C)C)[C@H]2O)[C@](C)(OC)C[C@@H](C)C(=O)[C@H](C)[C@@H](O)[C@]1(C)O [Clarithromycin] + C/C(=C\C(=O)OCCCCCCCCC(=O)O)C[C@@H]1OC[C@H](C[C@@H]2O[C@H]2[C@@H](C)[C@H](C)O)[C@@H](O)[C@H]1O [Pseudomonic acid]
Conditions | Bliss interaction score
[1] | 0.0643
[2] | 0.0528
[3] | 0.0379
[4] | 0.0125

fitness, [5], one replicate
Conditions | first compound 0.007812 µg/mL | first compound 0.01562 µg/mL | first compound 0.03125 µg/mL
partner 0.03 µg/mL | 0.925 | 0.852 | 0.667
partner 0.06 µg/mL | 0.841 | 0.838 | 0.673
partner 0.12 µg/mL | 0.68 | 0.615 | 0.412

fitness, [5]
Conditions | first compound 0.0625 µg/mL | first compound 0.07 µg/mL | first compound 0.125 µg/mL | first compound 0.14 µg/mL | first compound 0.25 µg/mL | first compound 0.28 µg/mL
partner 0.03 µg/mL | 0.683 | 0.159 | 0.427 | 0.0976 | 0.258 | 0.0736
partner 0.06 µg/mL | – | 0.12 | 0.399 | 0.102 | 0.174 | 0.0966
partner 0.12 µg/mL | 0.431 | 0.101 | 0.24 | 0.0908 | 0.117 | 0.0699

CC[C@H]1OC(=O)[C@H](C)[C@@H](O[C@H]2C[C@@](C)(OC)[C@@H](O)[C@H](C)O2)[C@H](C)[C@@H](O[C@@H]2O[C@H](C)C[C@H](N(C)C)[C@H]2O)[C@](C)(OC)C[C@@H](C)C(=O)[C@H](C)[C@@H](O)[C@]1(C)O [Clarithromycin] + CC1=C\[C@@H](O)CC(=O)Cc2nc(co2)C(=O)N2CCC=C2C(=O)O[C@H](C(C)C)[C@H](C)/C=C/C(=O)NC\C=C\1 [Virginiamycin M1]
Conditions | Bliss interaction score
[1] | 0.0597
[2] | 0.0359
[3] | 0.0322
[4] | 0.0856

fitness, [5], one replicate
Conditions | first compound 0.007812 µg/mL | first compound 0.01562 µg/mL | first compound 0.03125 µg/mL | first compound 0.0625 µg/mL | first compound 0.125 µg/mL | first compound 0.25 µg/mL
partner 0.15 µg/mL | – | – | – | 0.788 | 0.645 | 0.463
partner 0.3 µg/mL | – | – | – | 0.734 | 0.635 | 0.425
partner 0.5 µg/mL | 0.856 | 0.884 | 0.758 | 0.756 | 0.529 | 0.361
partner 1 µg/mL | 0.852 | 0.85 | 0.719 | 0.608 | 0.328 | 0.132
partner 2 µg/mL | 0.853 | 0.808 | 0.682 | – | – | –

fitness, [5]
Conditions | first compound 0.0625 µg/mL | first compound 0.07 µg/mL | first compound 0.125 µg/mL | first compound 0.14 µg/mL | first compound 0.25 µg/mL | first compound 0.28 µg/mL
partner 0.5 µg/mL | – | 0.119 | – | 0.0772 | – | 0.0473
partner 1 µg/mL | – | 0.118 | – | 0.0875 | – | 0.0656
partner 2 µg/mL | 0.647 | 0.124 | 0.463 | 0.105 | 0.288 | 0.0464

CC[C@H]1OC(=O)[C@H](C)[C@@H](O[C@H]2C[C@@](C)(OC)[C@@H](O)[C@H](C)O2)[C@H](C)[C@@H](O[C@@H]2O[C@H](C)C[C@H](N(C)C)[C@H]2O)[C@](C)(OC)C[C@@H](C)C(=O)[C@H](C)[C@@H](O)[C@]1(C)O [Clarithromycin] + CC(=O)NC[C@H]1CN(c2ccc(N3CCOCC3)c(F)c2)C(=O)O1 [Linezolid]
Conditions | Bliss interaction score
[1] | -0.0363
[2] | -0.0553
[3] | -0.119
[4] | -0.135

fitness, [5], one replicate
Conditions | first compound 0.007812 µg/mL | first compound 0.01562 µg/mL | first compound 0.03125 µg/mL
partner 0.2 µg/mL | 0.728 | 0.709 | 0.581
partner 0.4 µg/mL | 0.565 | 0.609 | 0.452
partner 0.8 µg/mL | 0.277 | 0.314 | 0.193

fitness, [5]
Conditions | first compound 0.0625 µg/mL | first compound 0.07 µg/mL | first compound 0.125 µg/mL | first compound 0.14 µg/mL | first compound 0.25 µg/mL | first compound 0.28 µg/mL
partner 0.105 µg/mL | 0.637 | – | 0.35 | – | 0.111 | –
partner 0.2 µg/mL | – | 0.0674 | – | 0.0794 | – | 0.0498
partner 0.21 µg/mL | 0.533 | – | 0.269 | – | 0.0783 | –
partner 0.4 µg/mL | – | 0.0735 | – | 0.0846 | – | 0.0492
partner 0.42 µg/mL | 0.326 | – | 0.163 | – | 0.101 | –
partner 0.8 µg/mL | – | 0.0543 | – | 0.0384 | – | 0.0345

CC[C@H]1OC(=O)[C@H](C)[C@@H](O[C@H]2C[C@@](C)(OC)[C@@H](O)[C@H](C)O2)[C@H](C)[C@@H](O[C@@H]2O[C@H](C)C[C@H](N(C)C)[C@H]2O)[C@](C)(OC)C[C@@H](C)C(=O)[C@H](C)[C@@H](O)[C@]1(C)O [Clarithromycin] + CC(C1CCC(C(O1)OC2C(CC(C(C2O)OC3C(C(C(CO3)(C)O)NC)O)N)N)N)NC [Gentamicin]
main component drawn
Conditions | Bliss interaction score
[1] | -0.06
[2] | 0.0895
[3] | 0.108
[4] | 0.12

fitness, [5], one replicate, main component drawn
Conditions | first compound 0.007812 µg/mL | first compound 0.01562 µg/mL | first compound 0.03125 µg/mL
partner 2 µg/mL | 0.876 | 0.84 | 0.63
partner 4 µg/mL | 0.873 | 0.878 | 0.651
partner 8 µg/mL | 0.885 | 0.842 | 0.645

fitness, [5], main component drawn
Conditions | first compound 0.0625 µg/mL | first compound 0.07 µg/mL | first compound 0.125 µg/mL | first compound 0.14 µg/mL | first compound 0.25 µg/mL | first compound 0.28 µg/mL
partner 2 µg/mL | 0.45 | 0.146 | 0.228 | 0.0838 | 0.0804 | 0.0949
partner 4 µg/mL | 0.447 | 0.144 | 0.206 | 0.0957 | 0.0925 | 0.0738
partner 8 µg/mL | 0.349 | 0.195 | 0.169 | 0.132 | 0.104 | 0.0605
